In ChEMBL document CHEMBL1201862, “PubChem BioAssay data set” (2004):
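Dose response: 5 concentrations. Exposure: 48 h. Format: 96-well plates. Endpoint: linear interpolation; highest concentration if not reached. GI50 = concentration required for 50% inhibition of growth.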 Calls of active or inactive are those of the source. No stated cut-off is given here; in the data, active = GI50 up to about 1.1 µM and inactive = higher.

Tests used:
Test in all cases: growth of human tumour cells (NCI), 48 h
PC-3 = test system: PC-3
EKVX = test system: EKVX
786-0 = test system: 786-0
NCI-H460 = test system: NCI-H460
OVCAR-4 = test system: OVCAR-4
RPMI-8226 = test system: RPMI-8226
LOX IMVI = test system: LOX IMVI
SK-MEL-5 = test system: SK-MEL-5
SK-MEL-28 = test system: SK-MEL-28
SK-OV-3 = test system: SK-OV-3
SNB-75 = test system: SNB-75
NCI-H522 = test system: NCI-H522
COLO 205 = test system: COLO 205
Hs-578T = test system: Hs-578T
U-251 = test system: U-251
OVCAR-8 = test system: OVCAR-8
SF-268 = test system: SF-268
SNB-19 = test system: SNB-19
NCI-H23 = test system: NCI-H23
KM12 = test system: KM12

`COc1cc2oc(=O)ccc2cc1C(=O)CC(C)C` was tested, and the GI50 (PC-3) was > 100 µM (inactive), the GI50 (EKVX) was 94.8 µM (inactive) and the GI50 (786-0) was > 100 µM (inactive). For the same compound, the GI50 (NCI-H460) was 62.5 µM (inactive), the GI50 (OVCAR-4) was 71.1 µM (inactive) and the GI50 (RPMI-8226) was > 100 µM (inactive). For the same compound, the GI50 (LOX IMVI) was > 100 µM (inactive), the GI50 (SK-MEL-5) was > 100 µM (inactive) and the GI50 (SK-MEL-28) was > 100 µM (inactive). For the same compound, the GI50 (SK-OV-3) was > 100 µM (inactive), the GI50 (SNB-75) was 78.7 µM (inactive) and the GI50 (NCI-H522) was 23.6 µM (inactive). For the same compound, the GI50 (COLO 205) was > 100 µM (inactive), the GI50 (Hs-578T) was 38.5 µM (inactive) and the GI50 (U-251) was > 100 µM (inactive). The GI50 (OVCAR-8) was > 100 µM (inactive), the GI50 (SF-268) was 99.3 µM (inactive) and the GI50 (SNB-19) was 56.1 µM (inactive). For the same compound, the GI50 (NCI-H23) was > 100 µM (inactive) and the GI50 (KM12) was > 100 µM (inactive).

In the case of `COCc1cc2c(s1)C(=O)C1=C(C2=O)C2(C=C(Br)C(=O)C(Br)=C2)CCN1`, the GI50 (PC-3) is reported as 3.15 µM (inactive), the GI50 (EKVX) is reported as 11.7 µM (inactive) and the GI50 (786-0) is reported as 4.88 µM (inactive). For the same compound, the GI50 (NCI-H460) was 3.58 µM (inactive), the GI50 (OVCAR-4) was 1.65 µM (inactive) and the GI50 (RPMI-8226) was 3.25 µM (inactive). For the same compound, the GI50 (LOX IMVI) was 2.19 µM (inactive), the GI50 (SK-MEL-5) was 1.71 µM (inactive) and the GI50 (SK-MEL-28) was 7.67 µM (inactive). The GI50 (SK-OV-3) was 17 µM (inactive), the GI50 (SNB-75) was 14.6 µM (inactive) and the GI50 (NCI-H522) was 2.39 µM (inactive). The GI50 (COLO 205) was 3.02 µM (inactive), the GI50 (Hs-578T) was 9.53 µM (inactive) and the GI50 (U-251) was 11.4 µM (inactive). The GI50 (OVCAR-8) was 4.15 µM (inactive), the GI50 (SF-268) was 4.86 µM (inactive) and the GI50 (SNB-19) was 18.3 µM (inactive). The GI50 (NCI-H23) was 2.38 µM (inactive) and the GI50 (KM12) was 4.85 µM (inactive).

For `O=C1c2cc([N+](=O)[O-])sc2C(=O)c2ccsc21`, the GI50 (PC-3) was 0.532 µM (active), the GI50 (EKVX) was 1.08 µM (active) and the GI50 (786-0) was 0.449 µM (active). The GI50 (NCI-H460) was 0.306 µM (active), the GI50 (OVCAR-4) was 0.48 µM (active) and the GI50 (RPMI-8226) was 0.206 µM (active). For the same compound, the GI50 (LOX IMVI) was 0.0687 µM (active), the GI50 (SK-MEL-5) was 0.17 µM (active) and the GI50 (SK-MEL-28) was 0.283 µM (active). For the same compound, the GI50 (SK-OV-3) was 1.58 µM (inactive), the GI50 (SNB-75) was 1.4 µM (inactive) and the GI50 (NCI-H522) was 0.195 µM (active). For the same compound, the GI50 (COLO 205) was 0.525 µM (active), the GI50 (Hs-578T) was 0.618 µM (active) and the GI50 (U-251) was 0.203 µM (active). For the same compound, the GI50 (OVCAR-8) was 0.465 µM (active), the GI50 (SF-268) was 0.361 µM (active) and the GI50 (SNB-19) was 1.89 µM (inactive). The GI50 (NCI-H23) was 0.352 µM (active) and the GI50 (KM12) was 0.407 µM (active).

With `C/C(=N\c1cccc(Cl)c1)c1ccncc1` the GI50 (PC-3) was > 100 µM (inactive), the GI50 (EKVX) was > 100 µM (inactive) and the GI50 (786-0) was > 100 µM (inactive). The GI50 (NCI-H460) was > 100 µM (inactive), the GI50 (OVCAR-4) was > 100 µM (inactive) and the GI50 (RPMI-8226) was > 100 µM (inactive). The GI50 (LOX IMVI) was > 100 µM (inactive), the GI50 (SK-MEL-5) was > 100 µM (inactive) and the GI50 (SK-MEL-28) was > 100 µM (inactive). The GI50 (SK-OV-3) was > 100 µM (inactive), the GI50 (SNB-75) was > 100 µM (inactive) and the GI50 (NCI-H522) was > 100 µM (inactive). For the same compound, the GI50 (COLO 205) was > 100 µM (inactive), the GI50 (Hs-578T) was > 100 µM (inactive) and the GI50 (U-251) was > 100 µM (inactive). For the same compound, the GI50 (OVCAR-8) was > 100 µM (inactive), the GI50 (SF-268) was 14.6 µM (inactive) and the GI50 (SNB-19) was > 100 µM (inactive). For the same compound, the GI50 (NCI-H23) was > 100 µM (inactive) and the GI50 (KM12) was > 100 µM (inactive).

For `N/C(=N\c1ccc(Cl)cc1)c1ccccc1N`, the GI50 (PC-3) was > 100 µM (inactive), the GI50 (EKVX) was > 100 µM (inactive) and the GI50 (786-0) was > 100 µM (inactive). For the same compound, the GI50 (NCI-H460) was > 100 µM (inactive), the GI50 (OVCAR-4) was > 100 µM (inactive) and the GI50 (RPMI-8226) was > 100 µM (inactive). The GI50 (LOX IMVI) was > 100 µM (inactive), the GI50 (SK-MEL-5) was > 100 µM (inactive) and the GI50 (SK-MEL-28) was > 100 µM (inactive). For the same compound, the GI50 (SK-OV-3) was > 100 µM (inactive), the GI50 (SNB-75) was > 100 µM (inactive) and the GI50 (NCI-H522) was > 100 µM (inactive). The GI50 (COLO 205) was > 100 µM (inactive), the GI50 (Hs-578T) was > 100 µM (inactive) and the GI50 (U-251) was > 100 µM (inactive). For the same compound, the GI50 (OVCAR-8) was > 100 µM (inactive), the GI50 (SF-268) was > 100 µM (inactive) and the GI50 (SNB-19) was > 100 µM (inactive). For the same compound, the GI50 (NCI-H23) was > 100 µM (inactive) and the GI50 (KM12) was > 100 µM (inactive).

For `CC(C)(C)[Si](C)(C)OCC1OC(n2cnc3c(=O)[nH]cnc32)CC1O` (stereo not given), the GI50 (PC-3) was > 100 µM (inactive), the GI50 (EKVX) was > 100 µM (inactive) and the GI50 (786-0) was > 100 µM (inactive). The GI50 (NCI-H460) was > 100 µM (inactive), the GI50 (OVCAR-4) was > 100 µM (inactive) and the GI50 (RPMI-8226) was > 100 µM (inactive). For the same compound, the GI50 (LOX IMVI) was > 100 µM (inactive), the GI50 (SK-MEL-5) was 60.5 µM (inactive) and the GI50 (SK-MEL-28) was > 100 µM (inactive). The GI50 (SK-OV-3) was > 100 µM (inactive), the GI50 (SNB-75) was 20.8 µM (inactive) and the GI50 (NCI-H522) was > 100 µM (inactive). The GI50 (COLO 205) was > 100 µM (inactive), the GI50 (Hs-578T) was > 100 µM (inactive) and the GI50 (U-251) was > 100 µM (inactive). The GI50 (OVCAR-8) was > 100 µM (inactive), the GI50 (SF-268) was > 100 µM (inactive) and the GI50 (SNB-19) was > 100 µM (inactive). The GI50 (NCI-H23) was > 100 µM (inactive) and the GI50 (KM12) was > 100 µM (inactive).

For `COc1ccc(OC)c2c1C(=O)C(Cl)=C(Cl)C2=O`, the GI50 (PC-3) was 14.5 µM (inactive), the GI50 (EKVX) was 8.3 µM (inactive) and the GI50 (786-0) was 3.41 µM (inactive). For the same compound, the GI50 (NCI-H460) was 19.8 µM (inactive), the GI50 (OVCAR-4) was 3.54 µM (inactive) and the GI50 (RPMI-8226) was 3.02 µM (inactive). For the same compound, the GI50 (LOX IMVI) was 2.07 µM (inactive), the GI50 (SK-MEL-5) was 5.64 µM (inactive) and the GI50 (SK-MEL-28) was 3.79 µM (inactive). For the same compound, the GI50 (SK-OV-3) was 28.4 µM (inactive), the GI50 (SNB-75) was 14.2 µM (inactive) and the GI50 (NCI-H522) was 2.04 µM (inactive). For the same compound, the GI50 (COLO 205) was 1.56 µM (inactive), the GI50 (Hs-578T) was 2.65 µM (inactive) and the GI50 (U-251) was 18 µM (inactive). For the same compound, the GI50 (OVCAR-8) was 6.46 µM (inactive), the GI50 (SF-268) was 13.5 µM (inactive) and the GI50 (SNB-19) was > 46 µM (inactive). The GI50 (NCI-H23) was 6.37 µM (inactive) and the GI50 (KM12) was 17.3 µM (inactive).
